In US12370197B2, “Combination product of a Bcl-2/Bcl-xL inhibitor and a chemotherapeutic agent and use thereof in the prevention and/or treatment of diseases” (ASCENTAGE PHARMA (SUZHOU) CO., LTD., priority 2019, dated 2025):
Where “and” joins values, the source holds several entries; their conditions need not be identical. Equal entries are not always repeated. Entries after “also recorded” stand apart in the source; their conditions may differ.

Key:
MV-4-11 AML xenograft = assay: human MV-4-11 AML xenograft model in mice; type: in vivo, mouse; settings: for mRECIST: MV-4-11 xenograft, animals with response / animals in group; for RTV (D22) (Mean ± SEM) / T/C (%) (D22): female BALB/c Nude mice, s.c. MV-4-11, Compound 6 or ABT-199 50 mg/kg oral once daily 21 days, HHT 1 mg/kg i.p. once daily 14 days, day 22
Description: Treatment was initiated on the day of grouping (Day 1). […] HHT was intraperitoneally administered once daily for consecutive 14 days. The tumor sizes (caliper) and animal body weights were measured twice a week.

OCI-AML-3 cells [1] = assay: Annexin V-PI apoptosis flow cytometry, OCI-AML-3; type: cell-based, human; settings: 24 h, Compound 6 10 nM, HHT 30 nM, alone or combined
Description: (§1) In the antiproliferative tests, cells were plated in 96-well plates (Corning, Cat. 3903) at 10000 cells/well/cell line. In the apoptosis assay, cells were plated in 24-well plates (Corning, Cat. 3524) at 200000 cells/well/cell line.
[Experimental Methods]: Flow Cytometer Analysis
Cells were harvested after 24 hours of treatment with Compound 6 alone, HHT alone, or the combination of both, and washed once with phosphate buffered saline (PBS). Cells were stained with Annexin-V and PI and analyzed using an Attune NxT flow cytometer. Apoptosis profiles were obtained by analyzing 20000 cells per experimental condition.
Apoptosis was detected using Annexin V-PI (propidium iodide) staining kit according to the manufacturer's instructions. After treating the cells MV-4-11, OCI-AML-3 and SKM-1 with 10 nM Compound 6 alone, 10 nM or 30 nM HHT alone or the combination of both for 24 hours, the cells were harvested and washed once with PBS. Cells were bi-color stained with Annenix V-FITC and PI. After staining was complete, analysis was performed using an Attune NxT flow cytometer. Apoptosis profiles were obtained by analyzing 20000 cells per experimental condition.

OCI-AML-3 AML xenograft = assay: human OCI-AML-3 AML xenograft model in mice; type: in vivo, mouse; settings: female NOD SCID mice, s.c. OCI-AML-3; Compound 6 50 mg/kg oral once daily 14 days; HHT 0.75 mg/kg i.p. once daily 7 days from D2; day 15
Description: Treatment was initiated on the grouping day (D1). […] HHT was intraperitoneally injected once daily from D2 and continued for consecutive 7 days. The tumor sizes (caliper) and animal body weights were measured twice a week.

MV-4-11 cells = assay: CellTiter-Glo luminometric cell viability assay (CTG), MV-4-11; type: cell-based, human
Description: as §1
(§2) For combination tests, the results were further analyzed using the CalcuSyn program to calculate a Combination Index (CI) (Chou, T. C. (2010) “Drug combination studies and their synergy quantification using the Chou-Talalay method.”, Cancer Res 70(2): 440-446). […]
(§3) The anti-proliferation effects of the test sample in three AML/MDS cell lines, namely MV-4-11 (Compound 6 sensitive cell line), OCI-AML-3 (Compound 6 non-sensitive cell line) and SKM-1 (Compound 6 non-sensitive cell line), were determined by quantifying ATP using CellTiter-Glo luminescence cell viability detection kits, according to the manufacturer's instructions.
(§4) First, cells in the logarithmic growth phase were collected, centrifuged, and the cell suspension was counted and diluted/adjusted to the desired concentration. […] More than 3 blank control wells containing only medium (100 μL/well) without cells were set on the same plate to obtain background luminescence, and cell control wells, i.e., wells containing cells but treated with vehicle control, were set. […]
(§5) Luminescence signals were detected using a Biotek synergy H1 microplate reader. […]

SKM-1 cells = assay: CellTiter-Glo luminometric cell viability assay (CTG), SKM-1; type: cell-based
Description: as §1, §2, §3, §4, §5

OCI-AML-3 cells [2] = assay: CellTiter-Glo luminometric cell viability assay (CTG), OCI-AML-3; type: cell-based, human
Description: as §1, §2, §3, §4, §5

MCL-1 = assay: Western Blot assay, MCL-1; type: cell-based, human; settings: MV-4-11, OCI-AML-3 and SKM-1 cells, 4 h; 10 nM Compound 6, 10 nM or 30 nM HHT
Description: [Experimental Methods]: Western Blot Assay
Western Blot assay was performed after 4 hours treatment of cells in logarithmic growth phase with Compound 6, HHT, either alone or in combination.
After 4 hours of interaction with 10 nM Compound 6 in combination with 10 nM or 30 nM HHT, cells were harvested and washed once with pre-cooled PBS. The cell pellets were lysed using RIPA lysate containing 1% PMSF and 1% protease inhibitor. The protein concentration was detected by using a BCA protein concentration detection kit. Cell lysates (20-50 μg) were separated by 4-20% SDS-PAGE. The separated proteins were transferred to PVDF membranes which were blocked using 1% BSA (bovine serum albumin) buffer at room temperature for 1 hours before incubated in a shaker at 4° C. overnight with primary antibody diluted in 1×TBST (Tris-Buffered Saline Tween-20) containing 1% BSA. The membranes were washed 3 times with 1×TBST each for 10 minutes, and then were incubated for 1 hour at room temperature using horseradish peroxidase (HRP)-tagged secondary antibodies (goat anti-rabbit-HRP (Yeasen, Cat. #33101ES60) and goat anti-mouse-HRP (Yeasen, Cat. #33201ES60), diluted according to the manufacturer's instructions). The membranes were washed 3 times with 1×TBST each for 10 minutes. HRP substrate was added onto the PVDF membrane. […]

Row | SMILES | mRECIST (MV-4-11 AML xenograft) | RTV (D22) (Mean ± SEM) (MV-4-11 AML xenograft) | T/C (%) (D22) (MV-4-11 AML xenograft) | apoptosis (Annexin V+ cells) (OCI-AML-3 cells [1]) | RTV(D15) (Mean ± SEM) (OCI-AML-3 AML xenograft) | T/C (%) (D15) (OCI-AML-3 AML xenograft) | sensitivity of the cell line to Compound 6 (MV-4-11 cells) | sensitivity of the cell line to Compound 6 (SKM-1 cells) | sensitivity of the cell line to Compound 6 (OCI-AML-3 cells [2]) | expression level of anti-apoptosis protein MCL-1 (MCL-1)
1 | CC1(C)CCC(CN2CCN(c3ccc(C(=O)NS(=O)(=O)c4ccc(NCC5CCOCC5)c([N+](=O)[O-])c4)c(Oc4cnc5[nH]ccc5c4)c3)CC2)=C(c2ccc(Cl)cc2)C1 [ABT-199] | no CR or PR and 6/6 PD | 11.77 ± 1.94 | 88.27% |  |  |  |  |  |  | 
2 | O=C(NS(=O)(=O)c1ccc(NC[C@H]2COCCO2)c([N+](=O)[O-])c1)c1ccc(N2CCN(CC3=C(c4ccc(Cl)cc4)CC4(CCC4)CC3)CC2)cc1Oc1cnc2[nH]ccc2c1 [Compound 6, (S)-N-((4-(((1,4-dioxan-2-yl)methyl)amino)-3-nitrophenyl)sulfonyl)-2-((1H-pyrrolo[2,3-b]pyridin-5-yl)oxy)-4-(4-((6-(4-chlorophenyl)spiro[3.5]non-6-en-7-yl)methyl)piperazin-1-yl)benzamide] | no CR or PR and 6/6 PD | 8.36 ± 0.76 | 62.76% | 12.1% | 12.77 ± 1.51 | 61.36% | sensitive; also recorded: moderate sensitivity | non-sensitive | non-sensitive | 
3 | COC(=O)C[C@](O)(CCCC(C)(C)O)C(=O)O[C@@H]1C(OC)=C[C@]23CCCN2CCc2cc4c(cc2[C@H]13)OCO4 [HHT, homoharringtonine] | 3/5 SD and 3/5 SD, 2/5 PD | 4.32 ± 1.42 | 32.43% | 25.0% | 13.89 ± 0.82 | 66.77% |  |  |  | reduce the expression level
